In ChEMBL document CHEMBL5291721, “A preclinical secondary pharmacology resource illuminates target-adverse drug reaction associations of marketed drugs” (Nat Commun, 2023):

Assays:
Adenosine receptor A1 = target: T1, Adenosine receptor A1 (Homo sapiens, UniProt P30542)
T1 sequence (P30542 whole entry): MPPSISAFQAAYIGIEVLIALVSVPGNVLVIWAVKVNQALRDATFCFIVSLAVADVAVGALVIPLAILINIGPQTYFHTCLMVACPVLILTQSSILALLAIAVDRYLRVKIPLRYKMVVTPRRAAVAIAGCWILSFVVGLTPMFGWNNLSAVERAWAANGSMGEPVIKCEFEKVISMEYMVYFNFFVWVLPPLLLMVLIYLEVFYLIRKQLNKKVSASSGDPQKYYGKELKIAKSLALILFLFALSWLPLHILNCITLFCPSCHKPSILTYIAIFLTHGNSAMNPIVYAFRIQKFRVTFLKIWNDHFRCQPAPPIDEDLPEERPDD

[1] = target: Glutamate receptor ionotropic, NMDA 1 (Rattus norvegicus, UniProt P35439)
[2] = target: T2, Gastrin/cholecystokinin type B receptor (Homo sapiens, UniProt P32239)
T2 sequence (P32239 whole entry): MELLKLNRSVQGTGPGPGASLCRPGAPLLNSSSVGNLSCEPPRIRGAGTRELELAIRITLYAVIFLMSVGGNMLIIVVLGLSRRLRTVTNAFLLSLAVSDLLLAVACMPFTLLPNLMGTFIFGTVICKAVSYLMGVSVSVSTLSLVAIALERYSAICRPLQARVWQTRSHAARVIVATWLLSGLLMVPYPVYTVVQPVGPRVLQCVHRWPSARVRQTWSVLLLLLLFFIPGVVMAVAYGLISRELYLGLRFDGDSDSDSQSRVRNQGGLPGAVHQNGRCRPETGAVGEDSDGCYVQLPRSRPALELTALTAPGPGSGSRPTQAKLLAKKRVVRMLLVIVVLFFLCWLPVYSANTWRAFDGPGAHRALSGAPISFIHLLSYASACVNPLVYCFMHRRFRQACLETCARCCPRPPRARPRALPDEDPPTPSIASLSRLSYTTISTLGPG

Progesterone receptor = target: T3, Progesterone receptor (Homo sapiens, UniProt P06401); format: functional
T3 sequence (P06401 whole entry): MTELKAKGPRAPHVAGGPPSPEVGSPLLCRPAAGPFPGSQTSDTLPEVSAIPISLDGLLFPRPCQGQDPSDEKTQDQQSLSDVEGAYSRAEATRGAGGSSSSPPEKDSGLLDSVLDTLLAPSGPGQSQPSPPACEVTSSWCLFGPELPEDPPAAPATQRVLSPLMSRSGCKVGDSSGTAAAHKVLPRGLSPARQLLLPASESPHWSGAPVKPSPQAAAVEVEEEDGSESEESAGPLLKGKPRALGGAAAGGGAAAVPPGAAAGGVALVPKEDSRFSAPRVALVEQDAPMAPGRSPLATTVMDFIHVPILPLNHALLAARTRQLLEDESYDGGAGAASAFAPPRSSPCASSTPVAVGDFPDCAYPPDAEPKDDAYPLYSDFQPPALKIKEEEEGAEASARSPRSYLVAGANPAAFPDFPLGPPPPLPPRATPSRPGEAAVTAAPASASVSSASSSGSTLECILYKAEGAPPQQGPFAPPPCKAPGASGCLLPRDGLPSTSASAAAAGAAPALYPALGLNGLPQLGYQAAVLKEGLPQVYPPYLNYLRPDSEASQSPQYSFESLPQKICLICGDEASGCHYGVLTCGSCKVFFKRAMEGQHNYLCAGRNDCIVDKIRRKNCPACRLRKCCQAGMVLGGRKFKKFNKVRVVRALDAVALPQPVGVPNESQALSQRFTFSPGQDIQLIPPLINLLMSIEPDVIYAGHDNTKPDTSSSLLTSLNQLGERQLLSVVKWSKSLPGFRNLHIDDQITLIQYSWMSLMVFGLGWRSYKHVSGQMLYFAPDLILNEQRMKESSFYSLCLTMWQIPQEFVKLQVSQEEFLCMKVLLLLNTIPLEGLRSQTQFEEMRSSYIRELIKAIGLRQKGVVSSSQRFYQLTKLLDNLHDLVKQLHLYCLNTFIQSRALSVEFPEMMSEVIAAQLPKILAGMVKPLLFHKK

[3] = target: Voltage-dependent L-type calcium channel subunit alpha-1C (Rattus norvegicus, UniProt P22002); format: functional
[4] = target: T4, Alpha-1A adrenergic receptor (Homo sapiens, UniProt P35348); format: functional, cell-based
T4 sequence (P35348 whole entry): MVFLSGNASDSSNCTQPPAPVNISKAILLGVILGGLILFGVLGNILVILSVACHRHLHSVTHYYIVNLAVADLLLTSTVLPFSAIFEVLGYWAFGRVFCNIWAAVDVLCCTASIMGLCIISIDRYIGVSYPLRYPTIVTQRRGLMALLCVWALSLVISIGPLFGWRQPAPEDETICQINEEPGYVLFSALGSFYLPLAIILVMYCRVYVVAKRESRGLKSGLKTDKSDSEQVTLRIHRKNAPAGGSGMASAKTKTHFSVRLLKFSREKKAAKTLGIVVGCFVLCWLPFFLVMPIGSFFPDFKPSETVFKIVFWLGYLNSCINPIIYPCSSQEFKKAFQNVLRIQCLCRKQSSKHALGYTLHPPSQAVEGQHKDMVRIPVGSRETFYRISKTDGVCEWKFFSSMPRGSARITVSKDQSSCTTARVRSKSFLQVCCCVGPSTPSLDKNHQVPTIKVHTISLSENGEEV
Also: assay procedure not described here.

Chain of Voltage-dependent L-type calcium channel subunit alpha-1C (P22002 whole entry): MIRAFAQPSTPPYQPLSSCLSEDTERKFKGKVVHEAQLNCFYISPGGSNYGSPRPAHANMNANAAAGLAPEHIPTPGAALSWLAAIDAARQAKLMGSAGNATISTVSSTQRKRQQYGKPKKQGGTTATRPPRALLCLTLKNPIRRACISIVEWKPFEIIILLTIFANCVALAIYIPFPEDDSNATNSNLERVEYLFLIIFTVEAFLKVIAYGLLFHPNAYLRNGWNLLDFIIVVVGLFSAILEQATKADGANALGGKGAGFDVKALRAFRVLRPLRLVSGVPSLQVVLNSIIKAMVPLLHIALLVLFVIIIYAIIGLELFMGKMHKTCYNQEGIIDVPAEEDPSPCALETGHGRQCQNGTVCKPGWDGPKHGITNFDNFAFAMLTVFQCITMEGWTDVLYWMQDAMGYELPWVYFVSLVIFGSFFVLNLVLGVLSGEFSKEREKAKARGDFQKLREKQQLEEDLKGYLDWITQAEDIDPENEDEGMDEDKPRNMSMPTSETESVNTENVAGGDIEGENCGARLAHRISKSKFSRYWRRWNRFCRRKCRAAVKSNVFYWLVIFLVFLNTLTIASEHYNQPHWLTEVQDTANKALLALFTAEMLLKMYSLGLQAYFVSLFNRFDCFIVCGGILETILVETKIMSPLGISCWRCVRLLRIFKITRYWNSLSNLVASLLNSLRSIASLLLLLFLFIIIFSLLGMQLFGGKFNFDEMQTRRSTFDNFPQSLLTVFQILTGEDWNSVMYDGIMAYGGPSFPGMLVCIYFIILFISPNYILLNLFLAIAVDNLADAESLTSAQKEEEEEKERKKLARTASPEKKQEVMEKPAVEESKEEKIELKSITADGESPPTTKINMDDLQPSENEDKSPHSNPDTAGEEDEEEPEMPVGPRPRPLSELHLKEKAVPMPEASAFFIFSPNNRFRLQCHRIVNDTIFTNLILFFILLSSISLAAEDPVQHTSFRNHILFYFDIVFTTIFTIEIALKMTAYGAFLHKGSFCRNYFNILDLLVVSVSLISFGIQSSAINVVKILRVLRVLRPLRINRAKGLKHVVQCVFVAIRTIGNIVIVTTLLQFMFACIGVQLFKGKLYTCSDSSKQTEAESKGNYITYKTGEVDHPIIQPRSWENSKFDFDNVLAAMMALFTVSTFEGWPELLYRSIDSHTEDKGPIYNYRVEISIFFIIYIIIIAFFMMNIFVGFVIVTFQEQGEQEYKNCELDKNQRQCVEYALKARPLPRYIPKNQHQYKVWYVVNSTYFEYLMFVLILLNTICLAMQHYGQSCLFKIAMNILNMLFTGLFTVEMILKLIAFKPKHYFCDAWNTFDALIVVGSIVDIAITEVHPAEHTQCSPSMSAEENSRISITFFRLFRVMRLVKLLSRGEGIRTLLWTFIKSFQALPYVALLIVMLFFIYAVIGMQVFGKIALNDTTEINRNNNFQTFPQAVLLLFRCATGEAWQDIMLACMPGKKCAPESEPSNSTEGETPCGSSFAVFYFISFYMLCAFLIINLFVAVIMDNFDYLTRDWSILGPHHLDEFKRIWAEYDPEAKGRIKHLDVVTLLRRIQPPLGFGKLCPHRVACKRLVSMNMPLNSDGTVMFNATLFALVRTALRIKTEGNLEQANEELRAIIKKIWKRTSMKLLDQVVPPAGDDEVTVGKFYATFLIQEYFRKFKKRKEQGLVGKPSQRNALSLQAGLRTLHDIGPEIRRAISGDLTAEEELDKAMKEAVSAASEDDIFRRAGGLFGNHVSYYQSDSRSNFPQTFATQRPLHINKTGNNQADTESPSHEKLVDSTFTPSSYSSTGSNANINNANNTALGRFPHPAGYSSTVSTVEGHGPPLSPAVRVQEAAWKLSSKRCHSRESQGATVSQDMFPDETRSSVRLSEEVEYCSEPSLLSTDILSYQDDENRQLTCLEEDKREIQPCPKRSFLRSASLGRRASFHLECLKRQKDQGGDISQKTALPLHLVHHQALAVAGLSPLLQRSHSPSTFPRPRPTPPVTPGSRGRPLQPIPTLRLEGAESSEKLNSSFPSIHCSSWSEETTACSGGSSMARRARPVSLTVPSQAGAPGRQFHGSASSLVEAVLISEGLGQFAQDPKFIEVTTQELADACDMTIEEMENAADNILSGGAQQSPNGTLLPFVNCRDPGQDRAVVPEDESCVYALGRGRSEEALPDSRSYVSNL

| Molecule | AC50 (Adenosine receptor A1) [µM] | AC50 [1] [µM] | AC50 [2] [µM] | AC50 (Progesterone receptor) [µM] | AC50 [3] [µM] | AC50 [4] [µM] |
| --- | --- | --- | --- | --- | --- | --- |
| COc1ccc(/C=C/C(=O)Nc2ccccc2C(=O)O)cc1OC | > 30 | > 30 | > 30 | > 30 | > 30 |  |
| C=C[C@@]1(C)CC(=O)[C@]2(O)[C@@]3(C)[C@@H](O)CCC(C)(C)[C@@H]3[C@H](OC(=O)CCN(C)C)[C@H](OC(C)=O)[C@@]2(C)O1 | > 30 | > 30 | > 30 | > 30 | > 30 |  |
| NCCCC(O)(P(=O)(O)O)P(=O)(O)O [ALENDRONIC ACID] | > 30 | > 10 | > 30 |  | > 10 |  |
| Nc1ccc(C(=O)O)c(O)c1 [AMINOSALICYLIC ACID] | > 30 | > 30 | > 30 | > 30 |  | > 30 |
| NS(=O)(=O)c1cc2c(cc1C(F)(F)F)NC(Cc1ccccc1)NS2(=O)=O (centres undefined) [BENDROFLUMETHIAZIDE] | > 10 | > 10 |  | > 10 | > 10 |  |
| CS(=O)(=O)OCCCCOS(C)(=O)=O [BUSULFAN] | > 30 | > 30 | > 30 | > 30 |  | > 30 |
| CCCCC1(CC)C(=O)NC(=O)NC1=O [BUTETHAL] | > 30 | > 30 | > 30 | > 30 |  | > 30 |
| C=CC1=C(C(=O)O)N2C(=O)[C@@H](NC(=O)/C(=N\OCC(=O)O)c3csc(N)n3)[C@H]2SC1 [CEFIXIME] | > 30 |  | > 30 | > 30 |  | > 30 |
| CO[C@@]1(NC(=O)Cc2cccs2)C(=O)N2C(C(=O)O)=C(COC(N)=O)CS[C@@H]21 [CEFOXITIN] | > 30 | > 30 | > 30 | > 30 |  |  |
| CCN(CC)CCOC(=O)c1ccc(N)cc1Cl [CHLOROPROCAINE] | > 30 | > 30 | > 30 | > 30 |  | > 30 |
| COCCOC(=O)C1=C(C)NC(C)=C(C(=O)OC/C=C/c2ccccc2)C1c1cccc([N+](=O)[O-])c1 (centres undefined) [CILNIDIPINE] | > 30 | > 30 | > 30 | > 30 |  |  |
| C[C@@H]1C[C@H]2[C@@H]3C[C@H](F)C4=CC(=O)C=C[C@]4(C)[C@@]3(F)[C@@H](O)C[C@]2(C)[C@H]1C(=O)CO [DIFLUCORTOLONE] |  |  |  | 0.052 |  |  |
| O=C(O)c1ccccc1OP(=O)(O)O [FOSFOSAL] | > 30 |  | > 30 | > 30 |  | > 30 |
| CC1(C)C(/C=C/C=C/C=C/C=C2\N(CCCCS(=O)(=O)O)c3ccc4ccccc4c3C2(C)C)=[N+](CCCCS(=O)(=O)[O-])c2ccc3ccccc3c21 [INDOCYANINE GREEN ACID FORM] | 22 | > 30 | 9.2 | > 30 |  |  |
| CCCC[C@H](C)C[C@H](O)/C=C/[C@H]1[C@H](O)CC(=O)[C@@H]1CCCC/C=C/C(=O)O [LIMAPROST] | > 30 | > 30 | > 30 | > 30 |  | > 30 |
| CC#CCn1c(N2CCC[C@@H](N)C2)nc2c1c(=O)n(Cc1nc(C)c3ccccc3n1)c(=O)n2C [LINAGLIPTIN] | > 30 | > 10 | > 30 |  | > 10 |  |
| Cc1ccc(NC(=O)C2(c3ccc4c(c3)OC(F)(F)O4)CC2)nc1-c1cccc(C(=O)O)c1 [LUMACAFTOR] | > 30 | > 30 | > 10 | > 30 |  | 25 |

| Molecule | AC50 (Adenosine receptor A1) [µM] | AC50 [1] [µM] | AC50 [2] [µM] | AC50 (Progesterone receptor) [µM] | AC50 [3] [µM] | AC50 [4] [µM] |
| --- | --- | --- | --- | --- | --- | --- |
| CCOC(=O)Nc1ccc2c(c1)N(C(=O)CCN1CCOCC1)c1ccccc1S2 [MORICIZINE] | > 30 | > 30 | > 30 | > 30 |  |  |
| O=C1CN=C(c2ccccc2)c2cc(Cl)ccc2N1 [NORDAZEPAM] | > 30 | > 10 | > 30 |  | > 10 |  |
| CC(CCc1ccccc1)NC(C)C(O)c1ccc(O)cc1 (centres undefined) [NYLIDRIN] | > 30 |  | > 30 |  | > 10 |  |
| CC(=O)O[C@H]1C[C@@H]2CC[C@@H]3[C@H](CC[C@@]4(C)[C@H]3C[C@H]([N+]3(C)CCCCC3)[C@@H]4OC(C)=O)[C@@]2(C)C[C@@H]1[N+]1(C)CCCCC1 [PANCURONIUM] | > 10 | > 10 |  | > 10 | > 10 |  |
| CCn1cc(C(=O)O)c(=O)c2cc(F)c(N3CCN(C)CC3)cc21 [PEFLOXACIN] | > 30 | > 30 | > 30 | > 30 |  |  |
| CC1(C)C(C=C(Cl)Cl)C1C(=O)OCc1cccc(Oc2ccccc2)c1 (centres undefined) [PERMETHRIN] | > 10 | > 10 |  | > 30 | > 10 |  |
| Cc1ccc(=O)n(-c2ccccc2)c1 [PIRFENIDONE] | > 30 | > 30 | > 30 | > 30 |  | > 30 |
| C[n+]1ccccc1/C=N/O [PRALIDOXIME] |  | > 30 |  |  |  | > 30 |
| CCCNC(C)C(=O)Nc1ccccc1C (centres undefined) [PRILOCAINE] | > 30 | 21 | > 30 | > 30 |  | > 30 |
| Cc1ccc2c(-c3ccccc3)nc(=O)n(C(C)C)c2c1 [PROQUAZONE] | > 30 | > 30 | > 30 | > 30 |  | > 30 |
| CN1CCN(c2c(F)cc3c(=O)c(C(=O)O)cn4c3c2SCC4)CC1 [RUFLOXACIN] | > 30 | > 30 | > 30 | > 30 |  | > 30 |
| CN1c2ccccc2C(NCCCCCCC(=O)O)c2ccc(Cl)cc2S1(=O)=O (centres undefined) [TIANEPTINE] | > 30 | > 30 | > 30 | > 30 |  |  |
| COc1cc2nccc(Oc3ccc(NC(=O)Nc4cc(C)on4)c(Cl)c3)c2cc1OC [TIVOZANIB] |  |  |  | > 3 |  | 19 |
| COc1cc2c(Nc3ccc(Br)cc3F)ncnc2cc1OCC1CCN(C)CC1 [VANDETANIB] | > 30 | > 30 | > 10 | > 30 |  | 22 |
| COc1ccc(C(CN(C)C)C2(O)CCCCC2)cc1 (centres undefined) [VENLAFAXINE] | > 30 | > 10 | > 30 |  |  | > 30 |
| N#C[C@@H]1CCCN1C(=O)CNC12CC3CC(CC(O)(C3)C1)C2 [VILDAGLIPTIN] | > 30 | > 30 | > 30 |  |  | > 30 |
| COLISTIN |  | > 30 |  |  |  | > 30 |
